Molecular target: HSPA8 (Hsc70) (Bos taurus, UniProt P19120)
Assay: […]-1H TROSY NMR titration
Format: binding

Sequence of HSPA8 (Hsc70) (P19120 1-383): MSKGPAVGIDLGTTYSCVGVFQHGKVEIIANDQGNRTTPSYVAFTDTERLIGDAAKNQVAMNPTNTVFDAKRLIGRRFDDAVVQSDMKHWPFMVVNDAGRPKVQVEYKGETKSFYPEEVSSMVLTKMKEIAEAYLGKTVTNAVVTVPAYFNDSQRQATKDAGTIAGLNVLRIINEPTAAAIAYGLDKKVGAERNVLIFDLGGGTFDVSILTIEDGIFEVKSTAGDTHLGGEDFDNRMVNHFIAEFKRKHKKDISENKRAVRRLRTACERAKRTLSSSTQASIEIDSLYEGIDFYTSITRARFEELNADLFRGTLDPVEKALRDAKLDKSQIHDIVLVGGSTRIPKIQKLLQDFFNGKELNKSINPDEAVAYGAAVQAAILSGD

- Kd: < 10 µM
SMILES: CCn1c(=Cc2cccc[n+]2CC)sc(=C2Sc3ccccc3N2C)c1=O [MKT-077, 1-ethyl-2-[[3-ethyl-5-(3-methylbenzothiazolin-2-yliden)]-4-oxothiazolidin-2-ylidenemethyl] pyridinium chloride]
